Data taken from patent US20120214802A1, “PYRROLIDINE COMPOUNDS WHICH INHIBIT BETA-SECRETASE ACTIVITY AND METHODS OF USE THEREOF” (priority 2009, published 2012).
Several values for one entry are separate records, joined by “and”; a condition that tells them apart may be missing. Identical values can stand only once. Like-named read-outs stand apart in the source and are kept apart here.

Experiments:
memapsin 2 [1] = molecular target: memapsin 2 (Homo sapiens, UniProt P56817); assay: Inhibition of memapsin 2 beta-secretase activity (fluorogenic substrate FS-2); assay type: biochemical; settings: pH 4, 37° C., read-out: M2 Ki
Outline: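 Memapsin 2 pre-incubated with compound for 20 min at pH 4, 37° C. Reaction started with fluorogenic substrate FS-2, […], derived from Swedish-variant APP beta-secretase site; inhibition measured from fluorescence.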

memapsin 2 [2] = molecular target: T1, memapsin 2 (Cricetulus griseus, UniProt G3IAK4); assay: Cellular Aβ IC50 determination (Aβ40 sandwich ELISA); assay type: cell-based, Chinese hamster; settings: CHO cells over-expressing human APP695 with London and Swedish mutations, 24 h, read-out: M2 IC50
T1 construct: endogenous in cells; host or cells: Chinese hamster ovary cells over-expressing human APP695 (London + Swedish)
Procedure: The potency of compounds against memapsin 2 activity was determined in a cellular assay of Aβ production. […] Chinese hamster ovary cells that over-express human APP695 with the London and Swedish mutations were seeded in multi-well plates at 10% confluency. Compounds are dissolved in DMSO to concentrations near 1 mM, and diluted into culture media to a final concentration near 4 μM (final 0.4% DMSO). Compounds were diluted serially and applied to cells in multi-well plates 48 h after seeding. Incubation was continued in 5% CO2 at 37° C. for 24 h. Aliquots were removed and assayed for […] using a sandwich ELISA (BioSource International). Amount of Aβ40 over the range of concentration of compounds, relative to control incubations, were fit to a 4-parameter IC50 model.

CYP3A4 = molecular target: T2, CYP3A4 (Homo sapiens, UniProt P08684); assay: CYP3A4 inhibition (midazolam metabolism in human liver microsomes); assay type: in vitro ADME; settings: substrate midazolam
T2 construct: host or cells: human liver microsomes
Procedure: To evaluate the drug-drug interaction potential for compounds, the potency to inhibit the major metabolic cytochrome CYP450 isoform 3A4 was assessed. The inhibition constant Ki was determined for inhibition of the metabolism of midazolam, a CYP3A4 substrate.
CYP3A4 Ki assays were performed following a recently published protocol with slight modifications (Di, L., Kerns, E. H., Li, S. Q., and Carter, G. T. (2007) Comparison of cytochrome P450 inhibition assays for drug discovery using human liver microsomes with LC-MS, rhCYP450 isozymes with fluorescence, and double cocktail with LC-MS. International Journal of Pharmaceutics 335: 1-11). The P450 inhibition assay was performed in 96-well plates at 37.2° C. in a shaking incubator. The compounds were diluted from 5 mM stocks in 100% DMSO and incubated at seven final concentrations from 0.078 to 10 μM (0.1% DMSO in each final incubation), with human liver microsomes (HLM) at a final protein concentration of 0.1 mg/mL protein and a substrate concentration ranging from 1.25 to 10 μM.
The assay was standardized for both phosphate buffer (100 mM, pH 7.4) and the NADPH regenerating system (MgCl2, 3.3 mM; G6P, 3.3 mM; G6PD, 1 U/ml; NADP+, 1.3 mM). Eight replicate control samples (0.1% DMSO, no compound) were prepared. Assays (200 μL) were set up by mixing HLM+substrate stock, 10 μL of test article in 2% DMSO, and the substrate before initiating the reaction with the addition of the regenerating system mixture. Reactions were quenched following incubation for 20, 30 and 40 minutes as described following.
After incubation for the specified time in a humidified shaking incubator, 20 μL of the reaction mixture was removed and the reactions were terminated by adding 200 μL of cold acetonitrile. Samples were centrifuged at 1000×g for 15 minutes in Solvinert filter plate. The receptor plate was dried via speed vacuum at 40° C. The sample was reconstituted with a reconstitution buffer composed of 10% acetonitrile, 10% DMSO, 80% H2O with an internal standard added at a concentration of 100 ng/ml. MS-Analysis was completed using LC-MS/MS. Formation of 1′-hydroxymidazolam was measured by monitoring a specific SRM (342>203) transition for the CYP3A4 metabolite.
Data were expressed as the relative quantity of midazolam metabolite relative to control incubations. Initial velocities were obtained by multiplying the relative quantity by the initial substrate concentration and dividing by the incubation duration. Data were transformed to inverse of inivital velocity and expressed vs. inhibitor concentration [I] for determination of Ki by the Dixon method (Dixon, M. (1953) Biochemical Journal 55: 170-171) using where intercept [I]=−Ki was determined at multiple substrate concentrations.

[3] = Hepatic intrinsic clearance in liver microsomes; assay type: in vitro ADME; settings: human, pH 7.4, human liver microsomes
Procedure: To 500 μl of 200 mM Na^+K^+phosphate buffer (pH 7.4), 100 μl of 1 mM EDTA solution was added followed by 100 μl of 2 mg protein/ml human liver microsomes. A 10 μl aliquot of test compound (20 mM stock in 50% acetonitrile) was diluted further with 40 μl of H2O (total assay volume […]. Assay mixture is incubated for 5 minutes at 37° C. The assay was initiated by addition of 250 μl of 4 mM NADPH solution. Incubation was continued at 37° C. Separate reaction mixtures were prepared for 0, 5, 10, 20, and 30 min durations. Individual reactions were halted by addition of 150 μl of 100% acetonitrile. Internal standard (10 μl of 100 ng/ml diazepam solution) was added. Concentration of the test compound in each separate reaction was measured using LC/MS/MS and a standard curve for the test compound according to standard procedures.
The hepatic intrinsic clearance in liver microsome was determined by the following procedure described by Davies and Morris (Davies, B. and Morris, T. (19930) Physiological parameters in laboratory animals and humans. Pharm Res. 10:1093-1095) detailing the relationship of in vitro clearance to physiological parameters in animals and human subjects.
The amount of compound remaining at each time point was expressed relative to the amount present in the initial (0 min) incubation. The relationship of relative amount vs. time was used to determine the half life of the compound in the microsome assay. The concentration independent rate constant, k1, was determined from rectangular hyperbolic fit:
where T is time (in minutes), from the relationship of relative amount vs. time. Alternatively, k1 was determined from a transform of the equation, where
Conversion to in vivo clearance was obtained from the relation (Davies and Morris, 1993):
where v=velocity of metabolism, [S] is the concentration of the compound, and volumes are expressed in mL.

[4] = in vitro clearance, read-out: HLM CL
[5] = read-out: hepatic intrinsic clearance in liver microsomes (HLMCL)

T2 sequence (P08684 whole entry): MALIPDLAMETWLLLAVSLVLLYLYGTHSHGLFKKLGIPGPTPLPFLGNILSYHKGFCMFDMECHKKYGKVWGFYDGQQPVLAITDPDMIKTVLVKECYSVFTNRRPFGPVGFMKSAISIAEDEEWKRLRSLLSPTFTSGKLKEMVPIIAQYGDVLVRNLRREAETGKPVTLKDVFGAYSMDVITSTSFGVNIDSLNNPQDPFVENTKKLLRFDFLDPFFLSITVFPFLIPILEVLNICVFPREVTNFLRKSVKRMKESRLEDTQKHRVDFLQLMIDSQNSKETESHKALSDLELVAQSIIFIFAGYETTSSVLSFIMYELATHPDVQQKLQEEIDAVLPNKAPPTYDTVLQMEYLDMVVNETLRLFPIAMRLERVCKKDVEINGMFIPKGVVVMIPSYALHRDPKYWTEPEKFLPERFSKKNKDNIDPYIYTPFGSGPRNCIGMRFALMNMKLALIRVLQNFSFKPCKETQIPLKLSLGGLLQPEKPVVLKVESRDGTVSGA
T1 sequence (G3IAK4 22-501): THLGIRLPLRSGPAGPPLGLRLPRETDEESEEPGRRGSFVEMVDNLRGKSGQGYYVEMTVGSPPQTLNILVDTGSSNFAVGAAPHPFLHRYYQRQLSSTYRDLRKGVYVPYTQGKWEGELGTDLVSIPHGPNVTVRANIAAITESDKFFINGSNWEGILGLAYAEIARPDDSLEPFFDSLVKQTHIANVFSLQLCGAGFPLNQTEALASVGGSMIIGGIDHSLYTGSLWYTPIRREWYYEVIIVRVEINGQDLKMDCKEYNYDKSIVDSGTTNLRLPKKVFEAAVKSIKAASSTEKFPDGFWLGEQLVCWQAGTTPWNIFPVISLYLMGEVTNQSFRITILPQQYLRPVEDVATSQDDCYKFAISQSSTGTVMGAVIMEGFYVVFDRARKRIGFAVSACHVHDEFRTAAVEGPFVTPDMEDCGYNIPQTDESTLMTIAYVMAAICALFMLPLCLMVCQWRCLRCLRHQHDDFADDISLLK
memapsin 2 (Homo sapiens, UniProt P56817), sequence (P56817 46-501): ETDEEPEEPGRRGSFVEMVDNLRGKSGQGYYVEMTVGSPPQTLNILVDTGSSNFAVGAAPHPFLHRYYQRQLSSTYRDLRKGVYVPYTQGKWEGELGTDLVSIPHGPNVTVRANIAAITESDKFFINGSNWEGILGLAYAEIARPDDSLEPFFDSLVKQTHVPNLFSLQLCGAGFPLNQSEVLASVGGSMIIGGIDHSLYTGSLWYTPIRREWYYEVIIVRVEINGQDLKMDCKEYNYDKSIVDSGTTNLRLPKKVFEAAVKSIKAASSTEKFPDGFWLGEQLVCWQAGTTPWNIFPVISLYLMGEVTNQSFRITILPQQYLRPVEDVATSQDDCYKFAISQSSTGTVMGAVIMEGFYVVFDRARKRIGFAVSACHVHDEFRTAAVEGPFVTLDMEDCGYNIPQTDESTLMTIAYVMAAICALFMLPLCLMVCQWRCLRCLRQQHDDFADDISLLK

| SMILES | Ki (memapsin 2 [1]) | IC50 (memapsin 2 [2]) | Ki (CYP3A4; read-out: CYP 3A4Ki) | CLint scaled at 200 μM [3, 4] | Ki (CYP3A4) | CLint scaled at 200 μM [3, 5] |
| --- | --- | --- | --- | --- | --- | --- |
| Cc1csc([C@H]2CCCN2C(=O)c2cc(F)cc(C(=O)N[C@@H](Cc3ccccc3)[C@H](O)[C@H]3CCCN3)c2)n1 [1-32, 3-fluoro-N-((1R,2S)-1-hydroxy-3-phenyl-1-((R)-pyrrolidin-2-yl)propan-2-yl)-5-((R)-2-(4-methylthiazol-2-yl)pyrrolidine-1-carbonyl)benzamide] | < 250 nM | > 1000 nM | 5000 to 10000 nM | < 400 mL/min/kg |  |  |
| Cc1csc([C@H]2CCCN2C(=O)c2cc(C(=O)N[C@@H](Cc3ccccc3)[C@H](O)[C@H]3CCCN3)cc(C(F)F)c2)n1 [1-14, 3-(difluoromethyl)-N-((1R,2S)-1-hydroxy-3-phenyl-1-((R)-pyrrolidin-2-yl)propan-2-yl)-5-((R)-2-(4-methylthiazol-2-yl)pyrrolidine-1-carbonyl)benzamide] | < 250 nM | < 500 nM | 1000 to 5000 nM | < 400 mL/min/kg |  |  |
| Cc1csc(CN(C)C(=O)c2cc(C(=O)N[C@@H](Cc3ccccc3)[C@H](O)[C@H]3CCCN3)cc(-c3ncco3)c2)n1 [1-15, N1-((1R,2S)-1-hydroxy-3-phenyl-1-((R)-pyrrolidin-2-yl)propan-2-yl)-N3-methyl-N3-((4-methylthiazol-2-yl)methyl)-5-(oxazol-2-yl)isophthalamide] | < 250 nM | < 500 nM | 5000 to 10000 nM | < 400 mL/min/kg |  |  |
| Cc1coc([C@H]2CCCN2C(=O)c2cccc(C(=O)N[C@@H](Cc3ccccc3)[C@H](O)[C@H]3C[C@@H](OCc4ccccc4)CN3)c2)n1 [1-18, N-((1R,2S)-1-((2R,4R)-4-(benzyloxy)pyrrolidin-2-yl)-1-hydroxy-3-phenylpropan-2-yl)-3-((R)-2-(4-methyloxazol-2-yl)pyrrolidine-1-carbonyl)benzamide] | ~50.4 nM and < 250 nM and 50.4 nM | < 500 nM | > 10000 nM | < 400 mL/min/kg | 11500 nM | ~337 mL/min/kg |
| Cc1cc(C(=O)N[C@@H](Cc2ccccc2)[C@H](O)[C@H]2CCCN2)cc(C(=O)N2CCC[C@@H]2c2nc(C)co2)c1 [1-8, N-((1R,2S)-1-hydroxy-3-phenyl-1-((R)-pyrrolidin-2-yl)propan-2-yl)-3-methyl-5-((R)-2-(4-methyloxazol-2-yl)pyrrolidine-1-carbonyl)benzamide] | 250 to 750 nM | > 1000 nM | > 10000 nM | < 400 mL/min/kg |  |  |
| Cc1csc([C@H]2CCCN2C(=O)c2cccc(C(=O)N[C@@H](Cc3ccccc3)[C@H](O)[C@H]3CCCN3)c2)n1 [1-40, N-((1R,2S)-1-hydroxy-3-phenyl-1-((R)-pyrrolidin-2-yl)propan-2-yl)-3-((R)-2-(4-methylthiazol-2-yl)pyrrolidine-1-carbonyl)benzamide] | < 250 nM | 500 to 1000 nM | 5000 to 10000 nM | < 400 mL/min/kg |  |  |
| Cc1csc([C@H]2CCCN2C(=O)c2cc(C(=O)N[C@@H](Cc3ccccc3)[C@H](O)[C@H]3CCCN3)cc(N3CCCC3=O)c2)n1 [1-39, N-((1R,2S)-1-hydroxy-3-phenyl-1-((R)-pyrrolidin-2-yl)propan-2-yl)-3-((R)-2-(4-methylthiazol-2-yl)pyrrolidine-1-carbonyl)-5-(2-oxopyrrolidin-1-yl)benzamide] | < 250 nM | < 500 nM |  | < 400 mL/min/kg |  |  |

Results, then the compound that gave them:

| Ki (memapsin 2 [1]) | IC50 (memapsin 2 [2]) | Ki (CYP3A4; read-out: CYP 3A4Ki) | CLint scaled at 200 μM [3, 4] | Ki (CYP3A4) | CLint scaled at 200 μM [3, 5] | SMILES |
| --- | --- | --- | --- | --- | --- | --- |
| < 250 nM | < 500 nM | < 1000 nM | > 700 mL/min/kg |  |  | Cc1csc([C@H]2CCCN2C(=O)c2cc(C(=O)N[C@@H](Cc3ccccc3)[C@H](O)CNCc3cncc(C(C)C)c3)cc(-c3ccco3)c2)n1 [2-2, 3-(furan-2-yl)-N-((2S,3R)-3-hydroxy-4-((5-isopropylpyridin-3-yl)methylamino)-1-phenylbutan-2-yl)-5-((R)-2-(4-methylthiazol-2-yl)pyrrolidine-1-carbonyl)benzamide, reference compound] |
| < 250 nM | < 500 nM | < 1000 nM | > 700 mL/min/kg | 717 nM | > 1000 mL/min/kg | Cc1cc(C(=O)N[C@@H](Cc2ccccc2)[C@H](O)CNCc2cncc(C(C)(C)C)c2)cc(C(=O)N2CCC[C@@H]2c2nc(C)co2)c1 [2-3, N-((2S,3R)-4-((5-tert-butylpyridin-3-yl)methylamino)-3-hydroxy-1-phenylbutan-2-yl)-3-methyl-5-((R)-2-(4-methyloxazol-2-yl)pyrrolidine-1-carbonyl)benzamide, reference compound] |
| < 250 nM | < 500 nM | 1000 to 5000 nM | > 700 mL/min/kg |  |  | Cc1coc([C@H]2CCCN2C(=O)c2cc(CF)cc(C(=O)N[C@@H](Cc3ccccc3)[C@H](O)CNCc3cccc(C(C)(C)C)c3)c2)n1 [2-7, N-((2S,3R)-4-(3-tert-butylbenzylamino)-3-hydroxy-1-phenylbutan-2-yl)-3-(fluoromethyl)-5-((R)-2-(4-methyloxazol-2-yl)pyrrolidine-1-carbonyl)benzamide, reference compound] |
| < 250 nM | < 500 nM |  | > 700 mL/min/kg |  |  | C=C(C)c1cccc(CNC[C@@H](O)[C@H](Cc2ccccc2)NC(=O)c2cccc(C(=O)N3CCC[C@@H]3c3nc(C)co3)c2)c1 [2-6, N-((2S,3R)-3-hydroxy-1-phenyl-4-(3-(prop-1-en-2-yl)benzylamino)butan-2-yl)-3-((R)-2-(4-methyloxazol-2-yl)pyrrolidine-1-carbonyl)benzamide, reference compound] |
| < 250 nM | < 500 nM |  | > 700 mL/min/kg |  |  | Cc1csc([C@H]2CCCN2C(=O)c2cncc(C(=O)N[C@@H](Cc3ccccc3)[C@H](O)CNCc3cc(Cl)nc(N(C)C)c3)c2)n1 [2-1, N-((2S,3R)-4-((2-chloro-6-(dimethylamino)pyridin-4-yl)methylamino)-3-hydroxy-1-phenylbutan-2-yl)-5-((R)-2-(4-methylthiazol-2-yl)pyrrolidine-1-carbonyl)nicotinamide, reference compound] |
